Assay results taken from article PMC12217461 (Antimicrobial Agents and Chemotherapy, 2025).
Read-outs that look alike come from different tables or passages of the source.

Assays:
IMP-14 S65G = experiment: IC50, inhibition of cephalothin hydrolysis; format: biochemical; settings: crude enzyme extract, 100 µM cephalothin, 3 min pre-incubation; read-out: IC50 against IMP-14 S65G
Protocol: (§1) Genes encoding different acquired IMP-like enzymes suspected to be resistant to XER (blaIMP-6, blaIMP-7, blaIMP-10, blaIMP-14, blaIMP-26, blaIMP-34, and blaIMP-59) were amplified by PCR, and corresponding amplicons were cloned into plasmid pUCP24 and expressed in E. coli TOP10. The following recombinant E. coli strains producing IMP-1, IMP-4, IMP-19, and NDM-1 were used from a previous study ([16]). Therefore, site-directed mutagenesis was performed using the Q5 Site-Directed Mutagenesis kit (ref. E0554S, New England Biolabs, Ipswich, MA) to obtain mutants of NDM-1 and IMP-14 in order to test the impact of specific amino-acid substitutions with respect to XER sensitivity. For that purpose, a list of primers was designed and provided as Table S1. […] The nomenclature used in this study was according to the BBL sequence numbering ([52]).
(§2) Cultures of E. coli TOP10 harboring recombinant plasmids and therefore producing the different IMP-like tested were grown overnight at 37°C in 50 mL of lysogeny broth (LB) with gentamicin (50 µg/mL). The bacterial suspension was pelleted, resuspended in 10 mL of 100 mM phosphate buffer (pH 7) supplemented with ZnSO4 (5 µM) for E. coli TOP10 harboring IMPs and then sonicated using a Vibra Cell 75186 sonicator (Thermo Fisher Scientific), followed by centrifugation for 1 h at 11,000 × g and 4°C. The presence of the β-lactamase was monitored using nitrocefin (200 µM). Kinetic measurements were performed at room temperature in 100 mM sodium phosphate (pH 7.0) supplemented with ZnSO4 (5 µM) for IMPs using a UV/visible ULTROSPEC 2100 pro spectrophotometer (Amersham Biosciences, Buckinghamshire, UK). The wavelength and absorption coefficient of cephalothin (262 nm/Ʌ ɛ = −7960 M^−1.cm^−1) were used for all IMPs, and IC50 was determined in triplicate for TAN and XER. Various concentrations of these inhibitors were pre-incubated with the crude extract of the enzyme for 3 min at room temperature to determine the concentrations that reduced the hydrolysis rate of 100 µM of cephalothin by 50% ([54]).

IMP-14 N233Y = experiment: IC50, inhibition of cephalothin hydrolysis; format: biochemical; settings: crude enzyme extract, 100 µM cephalothin, 3 min pre-incubation; read-out: IC50 against IMP-14 N233Y
Protocol: as §1, §2

IMP-14 N178S = experiment: IC50, inhibition of cephalothin hydrolysis; format: biochemical; settings: crude enzyme extract, 100 µM cephalothin, 3 min pre-incubation; read-out: IC50 against IMP-14 N178S
Protocol: as §1, §2

IMP-14 D227Y = experiment: IC50, inhibition of cephalothin hydrolysis; format: biochemical; settings: crude enzyme extract, 100 µM cephalothin, 3 min pre-incubation; read-out: IC50 against IMP-14 D227Y
Protocol: as §1, §2

IMP-14 H174N = experiment: IC50, inhibition of cephalothin hydrolysis; format: biochemical; settings: crude enzyme extract, 100 µM cephalothin, 3 min pre-incubation; read-out: IC50 against IMP-14 H174N
Protocol: as §1, §2

IMP-10 = settings: crude enzyme extract, 100 µM cephalothin, 3 min pre-incubation; read-out: IC50 against IMP-10; cited from earlier work
IMP-4 = settings: crude enzyme extract, 100 µM cephalothin, 3 min pre-incubation; read-out: IC50 against IMP-4; cited from earlier work
IMP-19 = settings: crude enzyme extract, 100 µM cephalothin, 3 min pre-incubation; read-out: IC50 against IMP-19; cited from earlier work
IMP-1 = settings: crude enzyme extract, 100 µM cephalothin, 3 min pre-incubation; read-out: IC50 against IMP-1; cited from earlier work
IMP-6 = biological target: T1, IMP-6 (Serratia marcescens, UniProt P52699, S214G); experiment: IC50, inhibition of cephalothin hydrolysis; format: biochemical; settings: crude enzyme extract, 100 µM cephalothin, 3 min pre-incubation; read-out: IC50 against IMP-6
T1 construct: made in house; host or cells: E. coli TOP10, plasmid pUCP24 (crude extract)
Protocol: as §2

IMP-59 = IMP-59 (Escherichia coli, UniProt A0A172MB70); experiment: IC50, inhibition of cephalothin hydrolysis; format: biochemical
Protocol: as §2

IMP-14 = experiment: IC50, inhibition of cephalothin hydrolysis; format: biochemical; settings: crude enzyme extract, 100 µM cephalothin, 3 min pre-incubation; read-out: IC50 against IMP-14
Protocol: as §2

IMP-26 = IMP-26 (Klebsiella pneumoniae, UniProt D0V558); experiment: IC50, inhibition of cephalothin hydrolysis; format: biochemical
Protocol: as §2

NDM-1 = settings: crude enzyme extract, 100 µM cephalothin, 3 min pre-incubation; read-out: IC50 against NDM-1; cited from earlier work

Compound	IC50 (IMP-14 S65G) [µM]	IC50 (IMP-14 N233Y) [µM]	IC50 (IMP-14 N178S) [µM]	IC50 (IMP-14 D227Y) [µM]	IC50 (IMP-14 H174N) [µM]	IC50 (IMP-10) [µM]	IC50 (IMP-4) [µM]	IC50 (IMP-19) [µM]	IC50 (IMP-1) [µM]	IC50 (IMP-6) [µM]	IC50 (IMP-59; crude enzyme extract, 100 µM cephalothin, 3 min pre-incubation, read-out: IC50 against IMP-59) [µM]	IC50 (IMP-14) [µM]	IC50 (IMP-26; crude enzyme extract, 100 µM cephalothin, 3 min pre-incubation, read-out: IC50 against IMP-26) [µM]	IC50 (NDM-1) [µM]	IC50 (IMP-59) [µM]	IC50 (IMP-26) [µM]
NCCN[C@H]1CC[C@H](CC(=O)N[C@H]2Cc3cccc(C(=O)O)c3OB2O)CC1 [taniborbactam]	> 250	> 250	> 250	204	> 250	> 250	> 250	> 250	> 250	> 250	7	> 250	> 250	[…]	–	–
O=C(O)c1c(F)ccc2c1OB(O)[C@@H]1C[C@H]21 [xeruborbactam]	140	210	180	250	182	73	14.7	7.5	2.7	180	–	> 250	–	[…]	10.3	77
